In patent US20250082630A1, “METHODS OF TREATING BRAIN TUMOURS AND NEUROBLASTOMAS” (AstraZeneca AB, priority 2021, published 2025):
Where two headings read alike, the source gives them in different places.

Tests used:
PARP1 = PARP1 (Homo sapiens (Human), UniProt P09874); test: PARP fluorescence anisotropy binding assay, PARP1
PARP3 = PARP3 (Homo sapiens (Human), UniProt Q9Y6F1); test: PARP fluorescence anisotropy binding assay, PARP3
Description: Recombinant full length PARP3 protein was diluted to 100 nM with 50 mM Tris pH 8, 0.001% Triton X100, 10 mM MgCl2, 150 mM NaCl and incubated for four hours with an equivalent volume of 6 nM fluorescent probe diluted with 50 mM Tris pH 8, 0.001% Triton X100, 10 mM MgCl2, 150 mM NaCl. The final DMSO concentration of the probe was kept below 1% (v/v).

PARP5a = PARP5a (Homo sapiens (Human), UniProt O95271); test: PARP fluorescence anisotropy binding assay, PARP5a
Sequence of PARP5a (O95271 1112-1317): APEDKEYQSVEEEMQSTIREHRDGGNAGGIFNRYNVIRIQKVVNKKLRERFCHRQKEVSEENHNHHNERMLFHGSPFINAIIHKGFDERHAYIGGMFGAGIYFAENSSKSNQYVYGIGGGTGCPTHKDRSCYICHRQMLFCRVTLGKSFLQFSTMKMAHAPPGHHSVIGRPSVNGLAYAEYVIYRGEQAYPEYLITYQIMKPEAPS
Description: Recombinant PARP5a binding domain was diluted to 160 nM with 50 mM Tris pH 8, 0.001% Triton X100, 10 mM MgCl2, 150 mM NaCl and incubated for four hours with an equivalent volume of 6 nM fluorescent probe diluted with 50 mM Tris pH 8, 0.001% Triton X100, 10 mM MgCl2, 150 mM NaCl. The final DMSO concentration of the probe was kept below 1% (v/v).

PARP6 = PARP6 (Homo sapiens (Human), UniProt Q2NL67); test: PARP fluorescence anisotropy binding assay, PARP6
Sequence of PARP6 (Q2NL67 whole entry): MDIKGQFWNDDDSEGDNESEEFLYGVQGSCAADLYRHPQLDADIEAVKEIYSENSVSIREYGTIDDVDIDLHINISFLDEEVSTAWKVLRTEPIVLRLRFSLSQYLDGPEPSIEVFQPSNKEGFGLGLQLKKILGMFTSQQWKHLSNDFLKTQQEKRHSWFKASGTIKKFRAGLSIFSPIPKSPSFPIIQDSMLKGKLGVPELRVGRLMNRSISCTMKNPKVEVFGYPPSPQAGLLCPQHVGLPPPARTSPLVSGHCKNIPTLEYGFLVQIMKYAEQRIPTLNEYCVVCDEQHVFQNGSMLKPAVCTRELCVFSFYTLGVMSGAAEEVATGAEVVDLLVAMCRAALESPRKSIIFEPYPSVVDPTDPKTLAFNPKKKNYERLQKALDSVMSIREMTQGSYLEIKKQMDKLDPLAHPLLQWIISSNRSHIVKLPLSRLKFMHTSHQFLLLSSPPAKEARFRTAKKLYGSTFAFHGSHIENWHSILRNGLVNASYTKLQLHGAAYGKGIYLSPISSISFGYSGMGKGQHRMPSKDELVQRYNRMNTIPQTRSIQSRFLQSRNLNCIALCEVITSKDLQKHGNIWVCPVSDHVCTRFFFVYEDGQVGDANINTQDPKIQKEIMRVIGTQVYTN
Description: Recombinant full length GST tagged PARP6 protein was diluted to 160 nM with 50 mM Tris pH 8, 0.001% Triton X100, 10 mM MgCl2, 150 mM NaCl and incubated for four hours with an equivalent volume of 6 nM fluorescent probe diluted with 50 mM Tris pH 8, 0.001% Triton X100, 10 mM MgCI2, 150 mM NaCl. The final DMSO concentration of the probe was kept below 1% (v/v).
Fluorescence anisotropy of the probe when bound to the proteins was measured using a BMG Pherastar FSX® in the presence of test compounds or solvent control and the effect on anisotropy determined. % inhibition values for different test compound concentrations were calculated and fitted to a four parameter logistic plot in order to determine the IC50 value. Where necessary, the compound K, can be determined from the IC50 value using a Munson Rodbard equation defined in Anal Biochem. 1980 Sep. 1; 107(1):220-39 and is based on the known KD of the probe binding to the relevant PARP protein

BRCA2 (−/−) DLD1 cells = test: PARP proliferation assay (7 day compound dosing), BRCA2 (−/−) DLD1; format: cell-based; conditions: read-out: BRCA2 −/− DLD-1 prolif. 7 d IC50
Description: (§1) DLD1 and BRCA2 (−/−) DLD1 cells were harvested to a density of 5000 cells/ml and 2.5E4 cells/ml respectively in complete media, 40 μL/well seeded into 384-well plates (Greiner, Kremsmunster, Austria; 781090) using a Multidrop Combi then incubated at 37° C., 5% CO2 overnight. Next day (Day 1) using a Multidrop Combi add sytox green (5ul, 2 uM) and saponin (10 ul, 0.25% stock) to a day 0 plate, seal the plate using a black adhesive lid and incubate for >3 h at it. Cells were imaged using Cell Insight (Thermo Fisher) fitted with a 4x objective. Test compounds are added using an Echo 555 and placed in incubator maintained at 37° C., 5% CO2 and incubated for 7 days. On Day 8 add sytox green (5ul, 2 uM) and then saponin (10 ul, 0.25% stock) to plates, seal the plate using a black adhesive lid and incubate for >3 h at it. Read all cells on the Cell Insight with 4× Objective. The rate of proliferation is determined in Genedata by assessing the total cell number output from the Cell Insight for Day 0 and Day 8 plates.

hERG [1] = target: T1, hERG (Homo sapiens (Human), UniProt Q12809); test: hERG IC50; conditions: read-out: hERG IC50
T1 sequence (Q12809 whole entry): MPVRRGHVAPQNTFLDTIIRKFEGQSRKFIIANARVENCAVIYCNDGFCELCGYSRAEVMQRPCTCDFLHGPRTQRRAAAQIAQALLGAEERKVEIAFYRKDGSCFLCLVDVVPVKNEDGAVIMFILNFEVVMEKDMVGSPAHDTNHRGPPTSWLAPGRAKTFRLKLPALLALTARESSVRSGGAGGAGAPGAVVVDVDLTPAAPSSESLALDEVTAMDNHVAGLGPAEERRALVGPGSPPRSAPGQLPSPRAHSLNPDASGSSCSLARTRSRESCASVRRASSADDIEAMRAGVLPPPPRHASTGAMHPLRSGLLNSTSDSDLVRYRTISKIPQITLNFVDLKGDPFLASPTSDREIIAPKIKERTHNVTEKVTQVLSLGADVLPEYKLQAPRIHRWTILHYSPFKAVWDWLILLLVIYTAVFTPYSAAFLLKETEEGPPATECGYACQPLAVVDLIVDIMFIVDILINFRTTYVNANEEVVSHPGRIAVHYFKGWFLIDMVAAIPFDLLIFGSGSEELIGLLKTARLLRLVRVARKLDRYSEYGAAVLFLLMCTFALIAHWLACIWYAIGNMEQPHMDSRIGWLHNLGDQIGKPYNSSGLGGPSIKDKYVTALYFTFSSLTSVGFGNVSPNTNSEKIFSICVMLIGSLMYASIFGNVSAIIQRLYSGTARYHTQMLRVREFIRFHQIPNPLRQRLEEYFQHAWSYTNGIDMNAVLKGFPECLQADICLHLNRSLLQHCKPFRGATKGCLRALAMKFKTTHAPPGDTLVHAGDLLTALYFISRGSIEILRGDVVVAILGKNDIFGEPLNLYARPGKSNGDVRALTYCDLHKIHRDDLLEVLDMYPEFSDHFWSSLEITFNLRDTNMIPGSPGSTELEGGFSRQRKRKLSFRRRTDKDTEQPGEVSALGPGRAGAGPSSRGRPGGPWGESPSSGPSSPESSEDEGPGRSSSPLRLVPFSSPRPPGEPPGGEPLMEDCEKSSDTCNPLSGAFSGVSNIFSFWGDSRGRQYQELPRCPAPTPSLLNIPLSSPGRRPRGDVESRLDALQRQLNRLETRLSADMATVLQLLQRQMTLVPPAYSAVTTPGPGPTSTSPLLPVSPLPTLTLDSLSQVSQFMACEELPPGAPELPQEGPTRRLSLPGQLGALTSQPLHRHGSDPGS

[2] = test system: MDCKII cells expressing MDR1 and BCRP; test: In vitro human transporter efflux (MDCK-MDR1-BCRP); conditions: Papp(B to A)/Papp(A to B), 90-min incubation
Description: (§2) MDCKII cells expressing MDR1 and BCRP were seeded onto polyethylene membranes in 96-well Transwell insert systems at a density to form a confluent cell monolayer. […] The final percent volume of the organic solvent was less than 1%. Permeation of the test compounds from A to B direction and from B to A direction was determined over a 90-min incubation at 37° C. and 5% CO2 with a relative humidity of 95%. At the end of the incubation, samples from the apical and basolateral side were taken and then precipitated with cold acetonitrile containing internal standard. After centrifugation at 4000 rpm, the supernatant was diluted with 0.1% formic acid aqueous solution and quantified by LC-MS/MS. The integrity of the cell monolayers was confirmed by using the marker Lucifer yellow.
(§3) The permeability coefficient (1×10-6 cm/s) was calculated using the following equation
(§4) (1) The Efflux Ratio was Calculated Using the Following Equation
Efflux ratio=Papp(B to A)/Papp(A to B)
(§5) (2) where dCr/dt is the cumulative concentration of the compound in the receiver chamber as a function of time (in μM/s); Vr is the solution volume in the receiver chamber (0.1 ml on the apical side and 0.3 ml on the basolateral side); A is the surface area for the transport, that is, 0.11 cm2 for the area of the monolayer; and C0 is the initial concentration in the donor chamber (in μM).

PARP2 = PARP2 (Homo sapiens (Human), UniProt Q9UGN5); test: PARP fluorescence anisotropy binding assay, PARP2
Sequence of PARP2 (Q9UGN5 whole entry): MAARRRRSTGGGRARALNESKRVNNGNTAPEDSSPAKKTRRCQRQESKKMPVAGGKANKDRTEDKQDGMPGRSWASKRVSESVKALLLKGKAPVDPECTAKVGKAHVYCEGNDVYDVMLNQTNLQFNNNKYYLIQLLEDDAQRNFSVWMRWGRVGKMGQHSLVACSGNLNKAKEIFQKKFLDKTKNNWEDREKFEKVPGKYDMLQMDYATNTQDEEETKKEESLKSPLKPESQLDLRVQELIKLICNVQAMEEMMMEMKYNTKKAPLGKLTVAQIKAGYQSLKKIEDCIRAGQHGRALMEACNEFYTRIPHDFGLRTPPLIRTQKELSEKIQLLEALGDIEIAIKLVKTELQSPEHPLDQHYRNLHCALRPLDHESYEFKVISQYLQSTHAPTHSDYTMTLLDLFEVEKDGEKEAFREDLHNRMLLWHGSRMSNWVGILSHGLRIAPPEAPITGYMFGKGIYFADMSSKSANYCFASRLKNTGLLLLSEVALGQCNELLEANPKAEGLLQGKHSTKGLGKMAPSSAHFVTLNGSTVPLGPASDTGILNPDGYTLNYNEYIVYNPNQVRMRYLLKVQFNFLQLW
In short: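 Recombinant full-length human PARP2 (6 nM before mixing) incubated 4 h with equal volume of 2 nM fluorescent probe in 50 mM Tris pH 8, 10 mM MgCl2, 150 mM NaCl, 0.001% Triton X100. Compound displacement measured as change in probe fluorescence anisotropy; IC50 from four-parameter logistic fit.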

DLD1 cells = test: PARP proliferation assay (7 day compound dosing), WT DLD1; format: cell-based; conditions: read-out: WT DLD-1 prolif. 7 d IC50
Description: as §1

hERG [3] = target: T1, hERG
[4] = test system: MDCKII cells expressing MDR1 and BCRP
Description: as §2, §3, §4
Efflux ratio=Papp(B to A)/Papp(A to B)
as §5

[5] = 30 mg/m^2 per day, days 1, 2 and 3 every 21 days, in combination with radiation therapy; cited from earlier work

Sequence of PARP3 (Q9Y6F1 whole entry): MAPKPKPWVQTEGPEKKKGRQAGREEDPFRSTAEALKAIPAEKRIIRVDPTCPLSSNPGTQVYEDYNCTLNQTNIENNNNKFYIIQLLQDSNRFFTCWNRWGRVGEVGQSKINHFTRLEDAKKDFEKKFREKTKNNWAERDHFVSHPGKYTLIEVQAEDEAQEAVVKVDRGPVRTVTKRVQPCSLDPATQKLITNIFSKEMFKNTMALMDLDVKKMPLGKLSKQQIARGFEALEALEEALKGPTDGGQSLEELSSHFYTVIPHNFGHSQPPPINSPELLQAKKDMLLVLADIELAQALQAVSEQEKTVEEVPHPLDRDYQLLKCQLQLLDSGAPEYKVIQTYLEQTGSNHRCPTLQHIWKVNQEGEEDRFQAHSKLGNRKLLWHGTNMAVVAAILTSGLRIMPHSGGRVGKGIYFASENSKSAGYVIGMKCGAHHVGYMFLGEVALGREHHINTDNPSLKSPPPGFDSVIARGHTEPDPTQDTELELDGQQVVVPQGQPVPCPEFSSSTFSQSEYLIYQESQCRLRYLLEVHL
Sequence of PARP1 (P09874 whole entry): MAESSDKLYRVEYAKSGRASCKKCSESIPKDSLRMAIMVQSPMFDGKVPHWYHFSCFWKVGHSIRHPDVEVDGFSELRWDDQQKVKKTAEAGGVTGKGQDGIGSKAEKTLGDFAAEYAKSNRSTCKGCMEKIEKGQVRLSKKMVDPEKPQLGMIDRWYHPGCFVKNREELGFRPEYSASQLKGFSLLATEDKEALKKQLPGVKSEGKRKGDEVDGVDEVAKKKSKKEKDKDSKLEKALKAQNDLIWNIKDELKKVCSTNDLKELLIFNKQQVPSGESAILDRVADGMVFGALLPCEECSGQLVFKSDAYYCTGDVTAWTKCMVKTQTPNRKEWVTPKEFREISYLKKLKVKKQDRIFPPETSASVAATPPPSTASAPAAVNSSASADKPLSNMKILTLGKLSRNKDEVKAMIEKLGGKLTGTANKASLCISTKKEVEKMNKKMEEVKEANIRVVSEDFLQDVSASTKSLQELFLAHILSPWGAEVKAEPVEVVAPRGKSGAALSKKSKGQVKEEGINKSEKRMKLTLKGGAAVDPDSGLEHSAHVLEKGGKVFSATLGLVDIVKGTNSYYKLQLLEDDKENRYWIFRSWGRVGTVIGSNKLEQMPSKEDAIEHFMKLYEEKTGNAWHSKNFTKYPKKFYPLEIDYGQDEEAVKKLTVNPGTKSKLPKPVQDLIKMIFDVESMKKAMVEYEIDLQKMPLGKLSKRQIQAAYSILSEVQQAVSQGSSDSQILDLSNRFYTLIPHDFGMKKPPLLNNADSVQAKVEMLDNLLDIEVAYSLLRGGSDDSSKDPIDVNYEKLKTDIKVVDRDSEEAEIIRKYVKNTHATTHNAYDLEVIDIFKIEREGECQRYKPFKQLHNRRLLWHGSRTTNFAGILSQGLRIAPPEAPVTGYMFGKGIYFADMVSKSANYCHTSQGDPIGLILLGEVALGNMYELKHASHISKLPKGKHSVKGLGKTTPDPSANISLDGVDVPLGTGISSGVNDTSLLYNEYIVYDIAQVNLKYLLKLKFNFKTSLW

| SMILES | IC50 (PARP1) [µM] | IC50 (PARP3) [µM] | IC50 (PARP5a) [µM] | IC50 (PARP6) [µM] | IC50 (BRCA2 (−/−) DLD1 cells) [µM] | IC50 (hERG [1]) [µM] | MDCK-MDR1-BCRP Efflux Ratio [2] | IC50 (PARP2) [µM] | IC50 (DLD1 cells) [µM] | IC50 (hERG [3]) [µM] | MDCK-MDR1-BCRP Efflux Ratio [4] | safety and tolerability [5] |
| --- | --- | --- | --- | --- | --- | --- | --- | --- | --- | --- | --- | --- |
| CNC(=O)c1ccc(N2CCN(Cc3ccc4nc([C@H](C)F)c(=O)[nH]c4c3F)CC2)c(F)n1 (single isomer, unassigned) [Example 12, 6-fluoro-5-[4-[[5-fluoro-2-[(1S OR 1R)-1-fluoroethyl]-3-oxo-4H-quinoxalin-6-yl]methyl]piperazin-1-yl]-N-methyl-pyridine-2-carboxamide] | 0.015 | 85 | > 100 | > 100 | 0.008 | > 40 | 4.2 |  |  |  |  |  |
| CNC(=O)c1ccc(N2CCN(Cc3ccc4nc([C@H](C)F)c(=O)[nH]c4c3F)CC2)c(F)n1 (single isomer, unassigned) [Example 13, 6-fluoro-5-[4-[[5-fluoro-2-[(1S OR 1R)-1-fluoroethyl]-3-oxo-4H-quinoxalin-6-yl]methyl]piperazin-1-yl]-N-methyl-pyridine-2-carboxamide] | 0.009 | 62 | > 100 | > 100 | 0.019 |  |  | > 100 | 22 | > 40 | 3.0 |  |
| CNC(=O)c1ccc(N2CCN(Cc3ccc4nc(C(C)F)c(=O)[nH]c4c3F)CC2)c(C)n1 (single isomer, unassigned) [Example 14, 5-[4-[[5-fluoro-2-[(1S OR 1R)-1-fluoroethyl]-3-oxo-4H-quinoxalin-6-yl]methyl]piperazin-1-yl]-N,6-dimethyl-pyridine-2-carboxamide] | 0.013 | 52 | > 100 | > 100 | 0.015 | > 40 | 3.7 | > 83 |  |  |  |  |
| CNC(=O)c1ccc(N2CCN(Cc3ccc4nc(C(C)F)c(=O)[nH]c4c3F)CC2)c(C)n1 (single isomer, unassigned) [Example 15, 5-[4-[[5-fluoro-2-[(1S OR 1R)-1-fluoroethyl]-3-oxo-4H-quinoxalin-6-yl]methyl]piperazin-1-yl]-N,6-dimethyl-pyridine-2-carboxamide] | 0.012 | 43 | > 100 | > 100 | 0.014 | > 38 | 3.7 | > 100 |  |  |  |  |
| O[C@H]([C@H](O)[C@@H]1CO1)[C@H]1CO1 [VAL-083, dianhydrogalactitol] |  |  |  |  |  |  |  |  |  |  |  | generally safe and well tolerated |
